Measurements taken from paper PMC4544630, “Contribution of C-glucosidic ellagitannins to Lythrum salicaria L. influence on pro-inflammatory functions of human neutrophils” (Journal of Natural Medicines, 2014).

Tests used:
MPO = MPO release from cytochalasin A/f-MLP-stimulated neutrophils (TMB substrate); type: cell-based, human; settings: cytochalasin A/f-MLP, % of stimulated control
Excerpt: Peripheral venous blood was taken from healthy human donors (20-35 years old) in the Warsaw Blood Donation Centre. […] The study conformed to the principles of the Declaration of Helsinki. Neutrophils were isolated using a standard method of dextran sedimentation prior to hypotonic lysis of erythrocytes and to centrifugation in a Ficoll Hypaque gradient. The purity of neutrophil preparations was >97 %, and viability measured by trypan blue exclusion was >98 %. Neutrophils were then resuspended in appropriate medium to perform the selected assay. Neutrophil MPO release was determined using TMB as a substrate. […] After centrifugation (2000 rpm; 10 min; 4 °C), 100 μL of supernatant was incubated with 50 μL of the TMB liquid substrate system. The reaction was terminated after 20 min by the addition of 2 M hydrochloric acid. The absorbance was measured at […] using a microplate reader (BioTek). Gallic acid was used as a positive control, according to Kroes et al..

ROS [1] = experiment: ROS release from PMA-stimulated neutrophils, lucigenin chemiluminescence; type: cell-based, human; settings: PMA + lucygenin, % of stimulated control
Excerpt: (§1) Peripheral venous blood was taken from healthy human donors (20–35 years old) in the Warsaw Blood Donation Centre. […] The study conformed to the principles of the Declaration of Helsinki. Neutrophils were isolated using a standard method of dextran sedimentation prior to hypotonic lysis of erythrocytes and to centrifugation in a Ficoll Hypaque gradient. The purity of neutrophil preparations was >97 %, and viability measured by trypan blue exclusion was >98 %. Neutrophils were then resuspended in appropriate medium to perform the selected assay.
(§2) Generation of oxidants by f-MLP or PMA-stimulated neutrophils was measured using luminol- or lucigenin-dependent chemiluminescence tests. 70 μL of cell suspension (2 × 10^5/mL) in HBSS was incubated with 50 μL of compound or extract solution (final concentrations of 1, 5 and 20 μM or μg/mL) together with 50 μL of luminol (100 μM) or lucigenin (200 μM) solution. ROS production was initiated by the addition of 30 μL of f-MLP (0.1 μg/mL) or PMA (1 μg/mL). Changes in chemiluminescence at 37 °C were measured immediately for 45 min at intervals of 2 min in a microplate reader (Biotek). Ascorbic acid was used as a positive control.

elastase = experiment: Elastase release from cytochalasin A/f-MLP-stimulated neutrophils (SAAVNA substrate); type: cell-based, human; settings: % of stimulated control
Excerpt: as §1
Neutrophil elastase release was determined using SAAVNA as a substrate, and […] was measured spectrophotometrically. 100 μL of cell suspension (5 × 10^5/mL) in HBSS was preincubated with 50 μL of compound or extract solution (final concentrations of 1, 5 and 20 μM or μg/mL) for 15 min at 37 °C and then stimulated with 50 μL of cytochalasin A (5 μg/mL) and f-MLP (0.1 μg/mL) for 15 min. The neutrophils were centrifuged (2000 rpm; 10 min; 4 °C). After the addition of 50 μL of SAAVNA solution (1.6 mg/mL) to 100 μL of supernatant, the extent of […] was measured spectrophotometrically for 1 h at intervals of 20 min, at 412 nm using a microplate reader (BioTek). According to Kanashiro et al., quercetin was used as a positive control.

IL-8 = IL-8 production by LPS-stimulated neutrophils (ELISA); type: cell-based, human; settings: LPS 100 ng/mL, 24 h, % of stimulated control
Excerpt: as §1
(§3) Neutrophils (2 × 10^5/mL) were cultured in 24-well plates in RPMI 1640 medium with 10 % FBS, 10 mM HEPES, and 2 mM L-glutamine in the absence or presence of LPS (100 ng/mL) for 24 h at 37 °C with 5 % CO2 in the absence or presence of extract at concentrations of 1, 5 and 20 μg/mL, and compounds at concentrations of 1, 5 and 20 μM were added to 1 mL of cell suspension 1 h before the stimuli. After 24 h, the neutrophils were harvested and centrifuged (2000 RPM; 10 min; 4 °C). The amount of IL-8 or MMP-9 released into cell supernatants was measured by enzyme-linked immunosorbent assay (ELISA) following the manufacturer’s instructions (R&D Systems, Minneapolis, MN, USA). PBS was used as a non-stimulated control. Curcumin was used as a positive control, according to Aggarwal and Harikumar and Antoine et al..

[2] = target: T1, bovine testis hyaluronidase (Bos taurus, UniProt Q2YDK3); experiment: Hyaluronidase activity, USP turbidimetric method modified; type: biochemical; settings: for Hyaluronidase activity Mean(%): % of 100% active enzyme control
T1 construct: purchased Sigma–Aldrich GmbH (Steinheim, Germany); host or cells: bovine testis
T1 sequence (Q2YDK3 36-553): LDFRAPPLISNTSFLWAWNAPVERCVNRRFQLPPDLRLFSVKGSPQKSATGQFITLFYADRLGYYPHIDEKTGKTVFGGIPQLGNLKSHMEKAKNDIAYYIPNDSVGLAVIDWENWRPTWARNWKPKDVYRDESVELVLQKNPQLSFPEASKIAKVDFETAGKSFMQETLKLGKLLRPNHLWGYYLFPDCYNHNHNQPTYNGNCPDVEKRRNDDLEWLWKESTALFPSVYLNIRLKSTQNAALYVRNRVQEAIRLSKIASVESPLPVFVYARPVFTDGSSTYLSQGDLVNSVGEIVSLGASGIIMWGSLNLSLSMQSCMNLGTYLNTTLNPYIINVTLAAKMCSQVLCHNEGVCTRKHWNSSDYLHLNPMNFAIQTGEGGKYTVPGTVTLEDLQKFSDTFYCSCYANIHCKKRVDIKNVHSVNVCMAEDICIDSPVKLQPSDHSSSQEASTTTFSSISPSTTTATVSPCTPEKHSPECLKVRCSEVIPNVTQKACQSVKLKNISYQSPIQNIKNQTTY
Excerpt: The […] flowering herb was collected from its natural habitat in Umer in the Świętokrzyskie region (Poland) in July 2011. Its identity was confirmed anatomically and morphologically based on its pharmacopoeial monograph in the Department of Pharmacognosy and Molecular Basis of Phytotherapy, Medical University of Warsaw, where the voucher specimen UMER2011 is deposited. […] […]), castalagin ([…] (SB) and […]. 1, 2) from […] performed according to Piwowarski and Kiss. […] Isolated ellagitannins were of >95 % purity (determined by the HPLC-DAD-CAD method). […] Gallic acid (>96 % purity) was purchased from ChromaDex (Santa Ana, USA). Propidium iodide was purchased from BD Biosciences (San Diego, CA, USA). All substances used were of >95 % purity. Phosphate-buffered saline (PBS) was purchased from Gibco (Carlsbad, CA, USA). The influence of extract and ellagitannins on hyaluronidase activity was measured using the USP turbidimetric method modified by Piwowarski et al. […] Heparin was used as a positive control.

MMP-9 = MMP-9 production by LPS-stimulated neutrophils (ELISA); type: cell-based, human; settings: LPS 100 ng/mL, 24 h, % of stimulated control
Excerpt: as §1, §3

ROS [3] = experiment: ROS release from f-MLP-stimulated neutrophils, luminol chemiluminescence; type: cell-based, human; settings: % of stimulated control
Excerpt: as §1, §2

| Compound | MPO release Mean(%) (MPO; 1 μM) | MPO release Mean(%) (MPO; 5 μM) | MPO release Mean(%) (MPO; 20 μM) | ROS release Mean(%) (ROS [1]; 1 μM) | ROS release Mean(%) (ROS [1]; 5 μM) | ROS release Mean(%) (ROS [1]; 20 μM) | Elastase release Mean(%) (elastase; 1 μM) | Elastase release Mean(%) (elastase; 5 μM) | Elastase release Mean(%) (elastase; 20 μM) | IL-8 production Mean (%) (IL-8; 1 μM) | IL-8 production Mean (%) (IL-8; 5 μM) | IL-8 production Mean (%) (IL-8; 20 μM) | MMP-9 production Mean (%) (MMP-9; 1 μM) | MMP-9 production Mean (%) (MMP-9; 5 μM) | MMP-9 production Mean (%) (MMP-9; 20 μM) | ROS release Mean(%) (ROS [3]; 1 μM) | ROS release Mean(%) (ROS [3]; 5 μM) | ROS release Mean(%) (ROS [3]; 20 μM) | also measured |
| --- | --- | --- | --- | --- | --- | --- | --- | --- | --- | --- | --- | --- | --- | --- | --- | --- | --- | --- | --- |
| O=C(O)c1cc(O)c(O)c(O)c1 [gal, Gallic acid, reference compound] | 85,62% | 58,97% | 18,88% | – | – | – | – | – | – | – | – | – | – | – | – | – | – | – | – |
| O=C(OC1COC(=O)c2cc(O)c(O)c(O)c2-c2c(cc(O)c(O)c2O)C(=O)OC1C1OC(=O)c2cc(O)c(O)c(O)c2-c2c(O)c(O)c(O)c3c2C(=O)OC1C3O)c1cc(O)c(O)c(O)c1Oc1cc2c(c(O)c1O)-c1c(cc(O)c(O)c1O)C(=O)OCC1OC(=O)c3cc(O)c(O)c(O)c3-c3c(O)c(O)c(O)c4c3C(=O)OC(C1OC2=O)C1OC(=O)c2c-4c(O)c(O)c(O)c2C1O (centres unmarked) [SA, salicarinin A] | 61,96% | 31,79% | 1,52% | 66,68% | 44,80% | 14,59% | 80,47% | 63,45% | 42,22% | 89,82% | 81,38% | 79,80% | 100,80% | 92,00% | 96,35% | 54,14% | 27,84% | 19,49% | IC50 [2]: 1600 ± 100 nM; Hyaluronidase activity Mean(%) ([2]; 1 μM): 75,50%; Hyaluronidase activity Mean(%) ([2]; 2 μM): 35,96%; Hyaluronidase activity Mean(%) ([2]; 5 μM): 0,50%; Hyaluronidase activity Mean(%) ([2]; 20 μM): 1,13% |
| O=C1O[C@H]([C@@H](O)CO)C(O)=C1O [VitC, ascorbic acid, reference compound] | – | – | – | 93,99% | 94,53% | 85,15% | – | – | – | – | – | – | – | – | – | 91,10% | 79,14% | 61,91% | – |
| O=C(OC1COC(=O)c2cc(O)c(O)c(O)c2-c2c(cc(O)c(O)c2O)C(=O)OC1C1OC(=O)c2cc(O)c(O)c(O)c2-c2c(O)c(O)c(O)c3c2C(=O)OC1C3O)c1cc(O)c(O)c(O)c1Oc1cc2c(c(O)c1O)-c1c(cc(O)c(O)c1O)C(=O)OCC1OC(=O)c3cc(O)c(O)c(O)c3-c3c(O)c(O)c(O)c4c3C(=O)OC(C1OC2=O)C1OC(=O)c2c-4c(O)c(O)c(O)c2C1O (centres unmarked) [SC, salicarinin C] | 66,67% | 52,85% | 5,95% | 66,62% | 34,56% | 7,37% | 85,10% | 80,91% | 50,60% | 77,70% | 78,29% | 56,68% | 97,74% | 92,17% | 86,61% | 63,16% | 34,71% | 18,92% | IC50 [2]: 2500 ± 200 nM; Hyaluronidase activity Mean(%) ([2]; 1 μM): 81,82%; Hyaluronidase activity Mean(%) ([2]; 2 μM): 57,68%; Hyaluronidase activity Mean(%) ([2]; 5 μM): 8,00%; Hyaluronidase activity Mean(%) ([2]; 20 μM): 0,50% |
| Heparin [reference compound] | – | – | – | – | – | – | – | – | – | – | – | – | – | – | – | – | – | – | Hyaluronidase activity Mean(%) ([2]; 1 μg/mL): 100,00%; Hyaluronidase activity Mean(%) ([2]; 2 μg/mL): 96,35%; Hyaluronidase activity Mean(%) ([2]; 5 μg/mL): 89,89%; Hyaluronidase activity Mean(%) ([2]; 20 μg/mL): 82,73% |
| COc1cc(/C=C/C(=O)CC(=O)/C=C/c2ccc(O)c(OC)c2)ccc1O [Cur, curcumin, reference compound] | – | – | – | – | – | – | – | – | – | 112,66% | 58,75% | 26,70% | 100,14% | 64,26% | 39,26% | – | – | – | – |
| O=c1c(O)c(-c2ccc(O)c(O)c2)oc2cc(O)cc(O)c12 [Q, quercetin, reference compound] | – | – | – | – | – | – | 104,09% | 78,40% | 55,22% | – | – | – | – | – | – | – | – | – | – |
